Laboratory results from patent publication US20250186463A1, “ABIRATERONE DECANOATE PRODRUGS AND USE IN THERAPY” (PROPELLA THERAPEUTICS, INC., priority 2022, published 2025).

Experiments:
Type in all cases: in vivo, human
serum corticosterone = experiment: Phase 1/2a study: serum corticosterone
Description: This is a Phase 1/2a, Open-label, Multicenter Study of Intramuscular Abiraterone Decanoate Depot in Patients with Advanced Prostate Cancer.
Formulations and dosing regimen: The formulation used in the study (abiraterone decanoate for intramuscular [i.m.] injection) is a solution formulation of abiraterone decanoate at a concentration of 180 mg/mL and will be provided as a 10 mL vial containing 990 mg of abiraterone decanoate in 5.5 mL of solution. See further details of the formulations in Example 2 (for each milliliter: Abiraterone Decanoate, about 180 mg/mL; Benzyl Alcohol, about 100 mg/mL; Benzyl Benzoate, about 200 mg/mL; and Corn oil, q.s. to 1 mL). Abiraterone Decanoate will be administered as an i.m. injection every 84 days (±3 days). Dose escalation will proceed with a modified Fibonacci sequence. Based on emerging data, intermediate doses may be evaluated.
Study Design: This is a Phase 1/2a, Open-label, Multicenter Study of Intramuscular Abiraterone Decanoate Depot in Patients with Advanced Prostate Cancer. In Phase 1, all patients will receive i.m. Abiraterone Decanoate depot in 84-day treatment cycles combined with daily oral prednisone or dexamethasone. In Phase 2a, patients will be randomized 1:1 and treated with i.m. Abiraterone Decanoate depot in 84-day treatment cycles in combination with dexamethasone (Arm A) or abiraterone acetate daily+prednisone (Arm B). In both Phases, patients will undergo scheduled periodic assessments of serum testosterone levels. Participants may continue treatment until they meet any discontinuation criteria outlined in the protocol.
(§1) Pharmacodynamic Analysis: Determination of Prostate Specific Antigen (PSA), serum testosterone, dehydroepiandrosterone (DHEA), dehydroepiandrosterone sulfate (DHEA-S), androstenedione, dihydrotestosterone (DHT), progesterone, cortisol, adrenocorticotropic hormone (ACTH), corticosterone, 11-dexoycorticosterone (11-DOC) and 11-deoxycortisol.
Based on the available data, the recommended dose for Phase 2 is about 1260 mg abiraterone decanoate once every three months (12 weeks). All cohorts 1 and 2 in this clinical study were treated with prednisone, 5 mg orally once or twice daily; and all cohorts 3-5 were treated with dexamethasone, 0.5 mg orally once daily. The results shown herein for these cohorts should be understood accordingly.
See also Table 3B below. […] See also FIG. 11B for the absolute serum progesterone levels for cohorts 4 and 5, with the LLOQ being 1.59 nM. It should be noted that the maximum serum progesterone level observed for cohorts 1-3 is 2.5 nM. FIGS. 3F and 3G show the serum 11-deoxycorticosterone and corticosterone response in cohorts 3, 4, and 5, the trend is similar to that observed for progesterone levels above. See a summary shown in the Table 3C below for the first cycle.

[1] = Phase 1/2a study: safety and tolerability
From the text: At each dose cohort, 3 to 4 patients will be enrolled. If none of the patients experience a dose-limiting toxicity (DLT) in the first 28 days (the DLT period) the dose will be escalated in the next cohort. A DLT will be defined as any of the following using on the Common Terminology Criteria for Adverse Events (CTCAE) criteria v5.0 regardless of attribution to the study drug unless it is clearly due to the patient's underlying disease or extraneous causes:
Safety Analysis: Adverse events will be summarized by severity, seriousness, and relationship to study treatments. Laboratory data, vital signs, PFTs and ECGs will be compared to baseline values.

[2] = tested on: serum DHEA-S, DHEA, androstenedione; experiment: Phase 1/2a study: serum DHEA-S, DHEA, androstenedione
From the text: as §1

lymph node lesions = experiment: Follow-up analysis and post-study PET/CT scan (Patient 1); conditions: Patient 1, 180 mg, CSPC; enzalutamide started after study
Description: Patient 1. This patient is in cohort 1, which was administered 180 mg of abiraterone decanoate. This patient is […], with CSPC, with a Gleason score ≤6, who entered the study with left common iliac and femoral lymph node involvement and measurable PSA. The patient received degarelix (March thru May 2021) and leuprolide (starting June 2021). Abiraterone decanoate was injected to the patient on Jul. […] On Sep. 24, 2021, this patient started enzalutamide (Xtandi) treatment.

CCCCCCCCCC(=O)O[C@H]1CC[C@@]2(C)C(=CC[C@@H]3[C@@H]2CC[C@]2(C)C(c4cccnc4)=CC[C@@H]32)C1 [abiraterone decanoate]
Corticosterone Changes during cycle 1, Percent (%) (serum corticosterone; 720 mg (N = 4), Day 14): 48% | Corticosterone Changes during cycle 1, Percent (%) (serum corticosterone; 720 mg (N = 4), Day 28): 27% | Corticosterone Changes during cycle 1, Percent (%) (serum corticosterone; 720 mg (N = 4), Day 56): 9% | Corticosterone Changes during cycle 1, Percent (%) (serum corticosterone; 720 mg (N = 4), Day 84): −33% | Corticosterone Changes during cycle 1, Percent (%) (serum corticosterone; 1,260 mg (N = 6), Day 14): 184% | Corticosterone Changes during cycle 1, Percent (%) (serum corticosterone; 1,260 mg (N = 6), Day 28): 490% | Corticosterone Changes during cycle 1, Percent (%) (serum corticosterone; 1,260 mg (N = 6), Day 56): 19% | Corticosterone Changes during cycle 1, Percent (%) (serum corticosterone; 1,260 mg (N = 6), Day 84): 32% | Corticosterone Changes during cycle 1, Percent (%) (serum corticosterone; 1,800 mg (N = 8), Day 14): 455% | Corticosterone Changes during cycle 1, Percent (%) (serum corticosterone; 1,800 mg (N = 8), Day 28): 259% | Corticosterone Changes during cycle 1, Percent (%) (serum corticosterone; 1,800 mg (N = 8), Day 56): 54% | Corticosterone Changes during cycle 1, Percent (%) (serum corticosterone; 1,800 mg (N = 8), Day 84): 109% | increases in upstream steroids from CYP17A1 hydroxylase, compared with Zytiga ([1]; Phase 1 study): far less than observed with Zytiga | safety issues relating to mineralocorticoid excess ([1]; Phase 1 study, to date): no safety issues relating to mineralocorticoid excess | safety profile ([1]; all cohorts 1-5): excellent | tolerability in human subjects ([1]; in vivo): generally well tolerated | serum DHEA-S level vs baseline ([2]; cohorts 1-5, FIG. 3B): significantly reduced | serum DHEA level vs baseline ([2]; cohorts 1-5, FIG. 3C): significantly reduced | serum androstenedione level vs baseline ([2]; cohorts 1-5, FIG. 3D): significantly reduced | lymph node lesions on post-study PET/CT scan (lymph node lesions): complete resolution of prior lymph node lesions
